{"source": "patent US12377087B2", "about": "“Compounds for the treatment of cancer” (UNIVERSITY OF LOUISVILLE RESEARCH FOUNDATION, INC., priority 2015, dated 2025)", "key": {"PFK-1": {"system": "PFK-1", "assay": "kinase activity of PFK-1", "format": "biochemical", "conditions": "10 μM"}, "H460 cells [1]": {"system": "H460 cells", "assay": "Glycolysis assay (3H2O from 5-[3H]glucose) in H460 cells", "format": "cell-based, human", "conditions": "H460, 10 μM 5MPN, 6-72 hours", "protocol": "Cells growing in 6-well plates were incubated in 500 μl of complete medium containing 1 μCi of 5-[^3H]glucose per well for 60 min in 5% CO2 at 37° C. Media was collected, ^3H2O formed via glycolysis from the 5-[^3H]glucose measured and counts normalized as previously described. For example, the medium was then collected and centrifuged to pellet any suspended cells. To separate the ^3H2O formed via glycolysis from the 5-[^3H]glucose added to the medium, an evaporation technique in a sealed system was utilized. Briefly, 150 μl aliquots of medium were added to open tubes that were placed upright inside scintillation vials containing 1 ml of H2O. The scintillation vials were sealed, and the ^3H2O produced by glycolysis through enolase and released to the medium was allowed to equilibrate with the H2O in the outer vial for 48 h at 37° C. The amounts of ^3H2O that had diffused into the surrounding H2O was measured on a Tri-Carb 2910 liquid scintillation analyzer (Perkin Elmer) and compared with ^3H2O and 5-[^3H]glucose standards. Protein concentration was determined using the BCA assay and counts were normalized to protein concentration. All data are expressed as the mean±SD of three experiments. Statistical significance was assessed by the two-sample t test (independent variable)."}, "H460 cells [2]": {"system": "H460 cells", "assay": "proliferation / viable cell count (trypan blue) of H460 cells", "format": "cell-based, human", "protocol": "Cell Viability: Cells were incubated in 20% trypan blue (Sigma) for 5 minutes. Cells excluding trypan blue were counted using a standard hemocytometer (Hausser Scientific) to determine total numbers of viable cells. Data are expressed as mean±SD of three experiments. Proliferation Assays: H460 non-small cell lung cancer cells were plated in 24 well plates and exposed to increasing concentrations of the indicated inhibitors of Formula IV (FBR1-02 corresponds to [drawing 47] DMSO was used as vehicle. After 24, 48 and 72 hours of exposure, cells were detached and viable cells were counted by Trypan blue exclusion (representative counts at 48 hours shown)."}, "H522": {"system": "H522", "assay": "viable cell count of H522 cells", "format": "cell-based", "conditions": "H522, 48 hours", "protocol": "Cell Viability: Cells were incubated in 20% trypan blue (Sigma) for 5 minutes. Cells excluding trypan blue were counted using a standard hemocytometer (Hausser Scientific) to determine total numbers of viable cells. Data are expressed as mean±SD of three experiments."}, "LLC xenografts": {"system": "LLC xenografts", "assay": "intratumoral F2,6BP in LLC xenografts", "format": "in vivo, C57BL/6 mice", "conditions": "120 mg/kg by gavage daily, 10 days", "protocol": "F2,6BP measurements: Cells or tissues were prepared as previously described and F2,6BP content measured using a coupled enzyme reaction following the method of Van Schaftingen et at (Van Schaftingen E et al. A kinetic study of pyrophosphate: fructose-6-phosphate phosphotransferase from potato tubers. Application to a microassay of fructose 2,6-bisphosphate. Eur J Biochem 1982 December; 129(1): 191-5) and normalized to total cellular protein measured by the bicinchoninic acid assay (BCA, Thermo Scientific). […] In order to measure F2,6BP, cells were harvested, washed with PBS, lysed in NaOH/Tris acetate by heating at 80° C. and lysates neutralized to pH 7.2. F2,6BP content was measured using a coupled enzyme reaction following the method of Van Schaftingen et al (Eur J Biochem. 1982; 129(1): 191-195). The F2,6BP concentration was normalized to total cellular protein measured by the bicinchoninic acid assay (BCA, Thermo Scientific) All data are expressed as the mean±SD of three experiments. Statistical significance was assessed by the two-sample t test (independent variable).\nAt the end of the experiment, animals were euthanized, tumors removed and sections fixed in 10% formaldehyde for immunohistochemistry or snap-frozen in liquid nitrogen for analyses. […]"}}, "data": [{"compound": "COc1cccc2c(NCCCCCO[N+](=O)[O-])ccnc12", "note": "[5MPN, 5-[(8-methoxyquinolin-4-yl)amino]pentyl nitrate]", "values": [{"measurement": "inhibition of PFK-1 kinase activity", "setting": "PFK-1", "result": "no inhibition of kinase activity"}, {"measurement": "glycolysis", "setting": "H460 cells [1]", "result": "reduced"}, {"measurement": "cell proliferation", "setting": "H460 cells [2]; H460, 24-72 hours", "result": "reduction in cell proliferation"}, {"measurement": "growth, viable cells", "setting": "H460 cells [2]; H460, 48 hours", "result": "dose-dependent reduction in growth"}, {"measurement": "anti-proliferative effect with over-expression of PFKFB4", "setting": "H460 cells [2]; H460 transfected with PFKFB4, 10 μM 5MPN, 24 hours", "result": "protected"}, {"measurement": "growth, viable cells", "setting": "H522", "result": "dose-dependent reduction in growth"}, {"measurement": "intratumoral F2,6BP", "setting": "LLC xenografts", "result": "marked reduction"}]}]}
